Test results from publication PMC8379681 (Cell reports, 2021).

Biological target: SPAK (Homo sapiens, UniProt Q9UEW8)
Assay type: biochemical

IC50: 8.23 µM
SMILES: Nc1ncnc2occ(-c3ccc(NC(=O)Nc4cc(C(F)(F)F)ccc4F)cc3)c12 [YU252, YU239252]
